Results on one molecule are retold here after PMC6161288, “Bioavailability of Eurycomanone in Its Pure Form and in a Standardised Eurycoma longifolia Water Extract” (Pharmaceutics, 2018).

A short description of series [1]: Caco-2 cell permeability assay. Type of series: in vitro ADME. The settings on record: human. How it is done:
The Caco-2 assay was carried out after seeding the cells onto the membrane to form a confluent monolayer in 21 days. The media is removed from apical (A) and basolateral (B) chambers and the membrane is washed with HBSS buffer. Eurycomanone (10 µM, 200 µL) was added to the A compartment (which represents the intestinal lumen), and buffer (300 µL) was added to the B compartment (representing the blood), and vice versa. The plate was kept in a shaking incubator (37 °C) for 1 h. The amount of eurycomanone that had permeated across the cells was measured by LC-MS/MS, and the apparent permeability (Papp) values and efflux ratio were calculated. The expression of P-glycoprotein (P-gp) by differentiated Caco-2 cells was confirmed by measuring the Papp value and efflux ratio of vinblastine with and without the presence of a competing P-gp substrate, cyclosporine A. Eurycomanone was also measured with the presence of cyclosporine A to investigate whether eurycomanone may be transported via P-gp transporters.

Series [2] is described as follows: Lipophilicity, shake flask method with octanol and buffer (pH 7.4). It is filed as physicochemical. The settings on record: pH 7.4, octanol/buffer shake flask; read-out: distribution coefficient log D. How it is done: The lipophilicity of eurycomanone was estimated using the shake flask method with octanol and buffer (pH 7.4). Eurycomanone (5 µL) at 5 mM concentration is added to octanol (495 µL) and DMSO (495 µL) and also into the aqueous and octanol phase in a 1:1 ratio ([…] of octanol phase and 247.5 µL of aqueous phase). The octanol and aqueous phases were prepared using a saturation process, where equal amounts of D-PBS (pH 7.4) and octanol were saturated (300 rpm, room temperature) for 24 h before being separated and kept at room temperature. The prepared mixtures were vortexed and kept on the shaker (300 rpm) at room temperature for 16 h. The mixtures were allowed to stand for 30 min, and 200 µL of solution was transferred and sent for HPLC analysis.

A short description of series [3]: Pharmacokinetics of eurycomanone (pure compound) in rats (intravenous and oral). It is filed as in vivo. Particulars: male, Wistar, rat, plasma; for AUC(0-t): read-out: AUC0–8. The source says: The ethical approval for the animal experiments conducted in India was granted from the Animal Ethics Committee, Aurigene Discovery Technologies, Bangalore, India. Eight male Wistar rats (12 weeks old; weighing 250–350 g) and eight Caeserean Derived-1 (CD-1) mice (weighing 20–30 g) were obtained from the Animal House, Aurigene Discovery Technologies, Bangalore, India. They were supplied with standard rodent diets and drinking water ad libitum. Each rodent species (i.e., rats and mice) were divided into two groups. One group (n = 3 for each rodent species) was administered with eurycomanone via the intravenous route (IV) and another group (n = 3 for each rodent species) via the oral route (PO) using oral gavage intubation needle. Two animals of each of the species were used as a control and they received reverse osmosis water. All rats underwent jugular vein cannulation surgery 72 h prior to the administration of the eurycomanone.
Eurycomanone (rats: 1.5 mg/mL for IV route and 3.0 mg/mL for PO route; mice: 0.5 mg/mL for IV route and 1.0 mg/mL for PO route) samples were prepared fresh on the day of dosing. For the IV administration, eurycomanone was dissolved in 3% NMP and 97% of 10% HPCD in saline. For the oral administration, eurycomanone was dissolved in 3% NMP and 97% of 30% HPCD in saline. Both samples were sonicated before use. The SWE (5 mg/mL for IV route, 10 mg/mL for PO route) was prepared fresh on the day of dosing. For the IV administration, the SWE was dissolved in reverse osmosis water and filtered (0.2 µm pore size) before administration. The SWE for the PO administration was prepared using the same method, except without filtering. The animals were not fasted and doses given were based on the body weights prior to dosing.
Blood specimens (approximately 0.30–0.40 mL via the jugular vein cannula for rats and 0.10–0.20 mL via submanibular bleeding for mice) were collected at time points 0.083 (IV group only), 0.25, 0.5, 1, 2, 4, 6, and 8 h post-dosing with eurycomanone. At the experiment end point, the animals were euthanized by excess isoflurane inhalation followed by cervical dislocation. In the experiment using SWE, the rats were placed in metabolic cages (Techniplast, West Chester, PA, USA) and blood (approximately 0.30–0.40 mL collected via the jugular vein cannula), urine, and faeces specimens were collected at the same time points with the above plus one additional time point of 24 h. Kidney and liver specimens were collected at necropsy, where the rats were euthanized by CO2 inhalation followed by cervical dislocation. All blood specimens were centrifuged (10,000 rpm, 10 min) to obtain plasma and were stored at −80 °C until processed. Urine and faeces specimens were collected into plastic containers on wet ice while the organ specimens were snap-frozen in liquid nitrogen and maintained at −80 °C until processed.
Plasma specimens (100 µL), collected from the eurycomanone experiment were added with the internal standard solution (10 µL). Plasma proteins were precipitated with ACN (300 µL), vortex-mixed for 5 min, and centrifuged at 4000 rpm for 7 min. The supernatant was collected and evaporated using a nitrogen evaporator for 20 min at 50 °C. Thereafter, they were reconstituted with the mobile phase (500 µL) and transferred into LC-MS vials for analysis.
Eurycomanone detection in the pure eurycomanone experiments was done via the LC-MS/MS system consisting of an Agilent 1260 Infinity HPLC system and an AB SCIEX API 4000™ Triple-Quadrupole mass spectrometer equipped with TurboIonSpray® probe and atmospheric pressure chemical ionization (APCI) (AB Sciex LLC, Framingham, MA, USA). Electrospray ionization (ESI) was performed in positive ion mode. The analytical column was Agilent Zorbax Eclipse-C18 (4.6 mm I.D. × 150 mm, 3.5 µm). The mobile phase consisted of 0.1% formic acid (solvent A) and 90% ACN with 0.1% formic acid (solvent B). […]

Series [4] in a line: Liver microsome metabolic stability, human. Type of series: in vitro ADME. Particulars: human liver microsomes. The method, then:
The liver microsome stability assay of eurycomanone was estimated using phase I and phase II enzymes in five types of microsomes (mice, rat, dog, monkey, and human). Eurycomanone at 1 mM (20 µL), microsomes at 0.3 mg/mL (20 µL), and 10 mg/mL of alamethicin in 1:1 DMSO and methanol (20 µL) were preincubated at 37 °C for 10 min. The cofactor, 5 mM UDPGA (20 µL), and 1 mM NADPH (20 µL) were added to make the final assay volume of 100 µL. At timepoints 0, 15, 30, 45, 60, and 90 min, […] of the reaction mixture is taken out and added to the stop solution. The supernatants (10,000 rpm, 10 min, 4 °C) were collected and analysed using LC-MS/MS. The standards used for mice and rat liver microsomes were propranolol and dasatinib. The standards used with the dog and monkey liver microsomes were propranolol and midazolam, while the standards used with the human liver microsomes were propranolol and terfinadine.
In general terms: Liver microsomes are vesicles of endoplasmic reticulum, rich in cytochrome P450 enzymes.

Read-outs that look alike come from different tables or passages of the source.

One may read the Papp as the rate of passage across a membrane or cell layer, normalised by area and donor concentration. As a reminder, the Cmax is the maximum level reached in the sampled fluid or tissue. As usually defined, the bioavailability is dose-corrected exposure relative to a reference, in per cent. The Tmax is the time at which the peak concentration occurs.

Turning to `C=C1[C@@H](O)[C@]2(O)OC[C@]34[C@H]2[C@@]2(C)[C@H](O)C(=O)C=C(C)[C@@H]2C[C@H]3OC(=O)[C@H](O)[C@@]14O` [Eurycomanone], the Papp at 1 h, 10 µM in series [1] (Caco-2, Caco-2, A to B) was found to be 0.45 ×10⁻⁶ cm/s; in series [1] (Caco-2, Caco-2, B to A) it was 0.73 ×10⁻⁶ cm/s. Besides, the efflux ratio at 1 h, 10 µM in series [1] (Caco-2, Caco-2, read-out: Efflux Ratio) is less than 2. Moreover, in series [2], the logD at 16 h is -0.35. The figures for the AUC(0-t) in series [3] (3 mg/kg intravenous) and in series [3] (30 mg/kg oral) were 970 ng·h/mL and 1150 ng·h/mL, respectively. For the same molecule, the Cmax in series [3] (30 mg/kg oral, read-out: Observed Cmax) was 238 ng/mL. In series [3] (3 mg/kg intravenous, read-out: Half-life (t1/2) (converted)), the half-life was 0.3 h. Moreover, the clearance in series [3] (3 mg/kg intravenous, read-out: Plasma Clearance (CL) (converted)) was 45.7 mL/min/kg. Moreover, the Vd in series [3] (3 mg/kg intravenous, read-out: Volume of Distribution at Steady State (Vss)) was found to be 0.95 L/kg. Further, the bioavailability in series [3] (30 mg/kg oral vs 3 mg/kg intravenous, read-out: Bioavailability (F)) amounted to 11.8%. Besides, in series [3] (30 mg/kg oral, read-out: Observed Tmax), the Tmax was 2 h. In addition, the “Half-life (t1/2)” value in series [4] is greater than 1.5 h. In series [4], this molecule had a half-life at 200 µM greater than 1.5 h. Further, in series [4] (read-out: Intrinsic clearance (Clint)), the CLint scaled at 200 µM worked out at 52.4 mL/min/kg.
